Test system: 60 human tumor cell line panel
Assay: 60 human tumor cell line panel proliferation (SRB)
Assay type: cell-based
Details: 0.01-100 μM, 48 h
Protocol: The chemokine CXCL8 and its receptors CXCR1 and CXCR2 have been identified as important mediators of cellular proliferation for a number of tumor cell types.
The human tumor cell lines of the cancer screening panel were grown in RPMI 1640 medium containing 5% fetal bovine serum and 2 mM L-glutamine. […] After cell inoculation, the microtiter plates were incubated at 37° C., 5% CO2, 95% air and 100% relative humidity for 24 h prior to addition of SX-682.
After 24 h, two plates of each cell line are fixed in situ with TCA, to represent a measurement of the cell population for each cell line at the time of drug addition (Tz). […]
Following drug addition, the plates were incubated for an additional 48 h at 37° C., 5% CO2, 95% air, and 100% relative humidity. […] Bound stain was subsequently solubilized with 10 mM TRIS, and the absorbance was read on an automated plate reader at a wavelength of 515 nm. […] Using the seven absorbance measurements (time zero, (Tz), control growth, (C), and test growth in the presence of drug at the five concentration levels (Ti)), the percentage growth was calculated at each of the drug concentrations levels. Percentage growth inhibition was calculated as: (Ti−Tz)/(C−Tz)×100 for concentrations for which Ti>/=Tz (Ti−Tz)/Tz×100 for concentrations for which Ti<Tz.
Three dose response parameters were calculated for each experimental agent. […]

## O=C(Nc1ccc(F)cc1)c1cnc(SCc2cc(OC(F)(F)F)ccc2B(O)O)nc1 [SX-682, 2-(2-boronic acid-5-trifluoromethoxy-benzylsulfanyl)-pyrimidine-5-carboxylic acid (4-fluoro-phenyl)-amide]
  tumor cell proliferation: directly affect the proliferation of human tumor cells

From patent US10561676B2, “Method for treating cancer using dual antagonists of CXCR1 and CXCR2” (Syntrix Biosystems, Inc., priority 2018, dated 2020)
